We go through eleven compounds from PubChem BioAssay (NCI).

Among the test systems are BT-549 breast; CCRF-CEM leukemia; LOX IMVI melanoma; MCF7 breast; MDA-MB-435; MOLT-4 leukemia; RPMI-8226 leukemia; SK-MEL-2 melanoma; SK-MEL-28 melanoma; U251 CNS.
Common to all, as to test: inhibition of tumour cell growth, NCI panel, 48 h

Each structure is given as a SMILES string.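 Values below derive from 48-hour exposures of cells grown in 96-well plates, with endpoints linearly interpolated between the two concentrations bracketing the appropriate inhibition level. Abbreviation: GI50, concentration required for 50% inhibition of growth. At the TGI there is no net growth.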

On to `CCN(c1cc(C#CCN2CCOCC2)cc(C(=O)NCc2c(C)cc(C)[nH]c2=O)c1C)C1CCC(N(C)CCOC)CC1` (centres undefined), for which the GI50 with BT-549 breast, with CCRF-CEM leukemia, with LOX IMVI melanoma, with MCF7 breast, with MDA-MB-435 and with MOLT-4 leukemia was greater than 100 µM throughout. Also, the GI50 in the assay on RPMI-8226 leukemia was 7.13 µM; with SK-MEL-2 melanoma it was greater than 100 µM; in the assay on SK-MEL-28 melanoma it was greater than 100 µM; with U251 CNS, greater than 100 µM. Further, the TGI in the assay on BT-549 breast, with CCRF-CEM leukemia, in the assay with LOX IMVI melanoma, with MCF7 breast, in the assay on MDA-MB-435 and in the assay with MOLT-4 leukemia was greater than 100 µM each time. For the same compound, the TGI with RPMI-8226 leukemia, in the assay on SK-MEL-2 melanoma, in the assay with SK-MEL-28 melanoma and in the assay on U251 CNS was greater than 100 µM throughout.

For the compound `Cc1c(Cl)cccc1NC(=O)c1sc2nc3c(cc2c1N)CCCCC3`, the GI50 with BT-549 breast was 0.252 µM; with CCRF-CEM leukemia, 0.257 µM; in the assay with LOX IMVI melanoma it was 0.262 µM; in the assay with MCF7 breast, 0.105 µM; in the assay with MDA-MB-435 it was 0.104 µM; in the assay with MOLT-4 leukemia it was 0.275 µM. Further, the GI50 is 0.434 µM with RPMI-8226 leukemia, 0.255 µM in the assay on SK-MEL-2 melanoma, 1.22 µM in the assay on SK-MEL-28 melanoma and 0.281 µM in the assay with U251 CNS. Further, the TGI with BT-549 breast was greater than 50 µM; in the assay with CCRF-CEM leukemia, greater than 50 µM; in the assay with LOX IMVI melanoma, 23.7 µM; in the assay with MCF7 breast it was greater than 50 µM; in the assay with MDA-MB-435, 0.317 µM; in the assay with MOLT-4 leukemia, greater than 50 µM. Moreover, the TGI was greater than 50 µM with RPMI-8226 leukemia, 25.2 µM in the assay with SK-MEL-2 melanoma, greater than 50 µM in the assay with SK-MEL-28 melanoma and 15.8 µM in the assay on U251 CNS.

As to `CC1=NN(c2nc(N)nc(/C=C\c3ccc([N+](=O)[O-])s3)n2)C(C)(C)C1`, the GI50 in the assay with BT-549 breast was greater than 100 µM; in the assay on CCRF-CEM leukemia, 77.5 µM; in the assay on LOX IMVI melanoma it was greater than 100 µM; with MCF7 breast it was greater than 100 µM; in the assay on MDA-MB-435, 62.8 µM; with MOLT-4 leukemia, greater than 100 µM. In addition, the GI50 with RPMI-8226 leukemia, in the assay with SK-MEL-2 melanoma, in the assay on SK-MEL-28 melanoma and with U251 CNS was greater than 100 µM in each case. For the same compound, the TGI in the assay with BT-549 breast, in the assay on CCRF-CEM leukemia, in the assay with LOX IMVI melanoma, in the assay with MCF7 breast, in the assay on MDA-MB-435 and in the assay on MOLT-4 leukemia was greater than 100 µM in each case. For the same compound, the TGI with RPMI-8226 leukemia, in the assay on SK-MEL-2 melanoma, with SK-MEL-28 melanoma and with U251 CNS was greater than 100 µM in each case.

In the case of `O=Nc1c(-c2c(O)[nH]c3ccc(Br)cc23)[nH]c2ccccc12`, the GI50 with BT-549 breast is 4.57 µM; in the assay with CCRF-CEM leukemia, 3.22 µM; in the assay on LOX IMVI melanoma, 2.18 µM; in the assay with MCF7 breast it was 2.21 µM; in the assay on MDA-MB-435 it was 5.47 µM; with MOLT-4 leukemia, 2.93 µM. Besides, the GI50 in the assay on RPMI-8226 leukemia is 3.56 µM; in the assay with SK-MEL-2 melanoma, 2.65 µM; in the assay with SK-MEL-28 melanoma it was 9.12 µM; in the assay with U251 CNS, 4.83 µM. The TGI with BT-549 breast was 20.2 µM; in the assay with CCRF-CEM leukemia it was 16.8 µM; in the assay on LOX IMVI melanoma it was 11 µM; in the assay with MCF7 breast, 8.48 µM; in the assay on MDA-MB-435, greater than 100 µM; in the assay with MOLT-4 leukemia, 7.21 µM. Besides, the TGI is 25.5 µM in the assay with RPMI-8226 leukemia, greater than 100 µM in the assay on SK-MEL-2 melanoma, greater than 100 µM with SK-MEL-28 melanoma and 23.1 µM in the assay on U251 CNS.

On to `COc1cc(-c2csc(NC(=O)Nc3cc(Cl)cc(Cl)c3)n2)cc(OC)c1OC`, for which the GI50 in the assay on BT-549 breast was 2.2 µM; in the assay with CCRF-CEM leukemia it was 3.41 µM; with LOX IMVI melanoma, 1.93 µM; in the assay on MCF7 breast, 2.01 µM; with MDA-MB-435 it was 1.9 µM; in the assay with MOLT-4 leukemia it was 3.9 µM. The GI50 with RPMI-8226 leukemia is 2.42 µM; with SK-MEL-2 melanoma, 2.61 µM; in the assay with SK-MEL-28 melanoma, 2.17 µM; in the assay on U251 CNS, 1.68 µM. The TGI with BT-549 breast was 4.65 µM; in the assay on CCRF-CEM leukemia it was greater than 100 µM; in the assay with LOX IMVI melanoma it was 3.96 µM; in the assay on MCF7 breast, 5.42 µM; in the assay with MDA-MB-435, 3.96 µM; in the assay with MOLT-4 leukemia, greater than 100 µM. The TGI with RPMI-8226 leukemia stood at 9.24 µM; in the assay with SK-MEL-2 melanoma, 7.97 µM; in the assay on SK-MEL-28 melanoma it was 5.43 µM; with U251 CNS, 3.15 µM.

As to `C[C@@H](Nc1nc(Nc2ccc(F)c(Cl)c2)nc2ccccc12)C1CC1`, the GI50 was 2.51 µM in the assay on BT-549 breast; 2.25 µM in the assay on CCRF-CEM leukemia; 1.68 µM in the assay on LOX IMVI melanoma; 2.84 µM with MCF7 breast; 3.93 µM in the assay on MDA-MB-435; 1.73 µM in the assay on MOLT-4 leukemia. For the same compound, the GI50 was 1.33 µM with RPMI-8226 leukemia, 5.88 µM in the assay with SK-MEL-2 melanoma, 2.86 µM in the assay with SK-MEL-28 melanoma and 3.72 µM in the assay with U251 CNS. In addition, the TGI in the assay with BT-549 breast amounted to 7.3 µM; in the assay on CCRF-CEM leukemia it was 7.12 µM; in the assay with LOX IMVI melanoma it was 3.25 µM; with MCF7 breast, 13.3 µM; in the assay with MDA-MB-435, 15 µM; with MOLT-4 leukemia, 5.38 µM. Further, the TGI in the assay with RPMI-8226 leukemia stood at 3.81 µM; in the assay with SK-MEL-2 melanoma, 24.9 µM; in the assay with SK-MEL-28 melanoma, 11.8 µM; with U251 CNS, 14.5 µM.

As to `O=[N+]([O-])c1cccc2nccc(NCCCO)c12`, the TGI in the assay with BT-549 breast amounted to 21.6 µM; in the assay on CCRF-CEM leukemia it was 57.5 µM; in the assay on LOX IMVI melanoma, 31.7 µM; with MCF7 breast it was 27.9 µM; in the assay on MDA-MB-435 it was 26.9 µM; in the assay on MOLT-4 leukemia it was 45.1 µM. In addition, the TGI in the assay on RPMI-8226 leukemia was found to be 46.6 µM; in the assay on SK-MEL-2 melanoma it was 20.9 µM; with SK-MEL-28 melanoma, 26.5 µM; with U251 CNS it was 31.3 µM.

Turning to `CCCCCCCCCCCCCCCCCC(=O)Nc1ccn(C2OC(CO)C(O)C2O)c(=O)n1` (centres undefined), the TGI with BT-549 breast was greater than 91.5 µM; in the assay with CCRF-CEM leukemia, 26.2 µM; in the assay with LOX IMVI melanoma, 39.4 µM; with MCF7 breast, greater than 100 µM; with MDA-MB-435, greater than 100 µM; with MOLT-4 leukemia it was 23.1 µM. Moreover, the TGI in the assay with RPMI-8226 leukemia, with SK-MEL-2 melanoma, in the assay on SK-MEL-28 melanoma and in the assay with U251 CNS was greater than 100 µM in each case.

As to `CS(=O)(=O)N(c1cc(-c2ccc3ncnc(Nc4cccc(Cl)c4)c3c2)cnc1Cl)S(C)(=O)=O`, the GI50 was 0.318 µM in the assay on BT-549 breast; 0.52 µM in the assay on CCRF-CEM leukemia; 0.427 µM in the assay with LOX IMVI melanoma; 0.23 µM with MCF7 breast; 0.443 µM in the assay with MDA-MB-435; 0.334 µM in the assay on MOLT-4 leukemia. Also, the GI50 in the assay on RPMI-8226 leukemia was 0.522 µM; in the assay on SK-MEL-2 melanoma it was 0.469 µM; in the assay on SK-MEL-28 melanoma, 0.306 µM; in the assay with U251 CNS, 0.782 µM. Also, the TGI in the assay on BT-549 breast was 3.03 µM; with CCRF-CEM leukemia, 89.3 µM; in the assay with LOX IMVI melanoma it was 2.26 µM; in the assay on MCF7 breast it was 9.69 µM; in the assay with MDA-MB-435, 4.07 µM; in the assay with MOLT-4 leukemia it was 1.31 µM. The TGI amounted to 3.62 µM in the assay on RPMI-8226 leukemia, 2.09 µM in the assay on SK-MEL-2 melanoma, 11.1 µM with SK-MEL-28 melanoma and 8.07 µM in the assay with U251 CNS.

As for `Cc1cccc(Cc2cnc(NC(=O)CCc3ccc(C)o3)s2)c1`, the GI50 in the assay on BT-549 breast is 0.814 µM; in the assay on CCRF-CEM leukemia, 0.234 µM; in the assay on LOX IMVI melanoma, 0.518 µM; in the assay with MCF7 breast, 0.0495 µM; in the assay on MDA-MB-435 it was 0.0302 µM; with MOLT-4 leukemia, 0.371 µM. The GI50 with RPMI-8226 leukemia was 0.318 µM; in the assay on SK-MEL-2 melanoma, 0.404 µM; with SK-MEL-28 melanoma, 2.06 µM; in the assay on U251 CNS, 0.293 µM. Besides, the TGI with BT-549 breast is greater than 100 µM; in the assay with CCRF-CEM leukemia, greater than 100 µM; in the assay on LOX IMVI melanoma it was greater than 100 µM; in the assay on MCF7 breast, greater than 100 µM; in the assay on MDA-MB-435, 0.12 µM; in the assay with MOLT-4 leukemia it was greater than 100 µM. The TGI with RPMI-8226 leukemia, in the assay with SK-MEL-2 melanoma, in the assay with SK-MEL-28 melanoma and in the assay with U251 CNS was greater than 100 µM in each case.

Turning to `CCN(CC)C(=S)[S][Bi]([S]C(=S)N(CC)CC)[S]C(=S)N(CC)CC`, the GI50 was 0.203 µM with BT-549 breast; 0.0193 µM with CCRF-CEM leukemia; 0.261 µM with LOX IMVI melanoma; 0.119 µM with MCF7 breast; 0.984 µM with MDA-MB-435; 0.0945 µM in the assay on MOLT-4 leukemia. Besides, the GI50 is 0.23 µM in the assay with RPMI-8226 leukemia, 0.3 µM with SK-MEL-2 melanoma, 0.218 µM in the assay with SK-MEL-28 melanoma and 1.12 µM in the assay on U251 CNS. Further, the TGI in the assay on BT-549 breast stood at 0.384 µM; in the assay with LOX IMVI melanoma it was 0.745 µM; in the assay with MCF7 breast, 0.349 µM; in the assay on MDA-MB-435 it was 2.2 µM; with MOLT-4 leukemia, 2.28 µM; in the assay with RPMI-8226 leukemia, 2.15 µM. For the same compound, the TGI in the assay on SK-MEL-2 melanoma came out at 0.774 µM; in the assay with SK-MEL-28 melanoma it was 0.492 µM; in the assay with U251 CNS it was 2.34 µM.
